Laboratory results reported in US8618094B2, “Fused substituted aminopyrrolidine derivative” (Daiichi Sankyo Company, Limited, priority 2007, dated 2013).
≈ marks a conversion by molar mass, not a printed value.

How the values were obtained:
mouse bone marrow = test: Mouse bone marrow micronucleus test after intravenous administration; assay type: in vivo
From the text: The compound represented by the formula 365 was confirmed to be positive for induction of micronuclei in a mouse bone marrow micronucleus test after intravenous administration.

H. influenzae ATCC49247 = test: Antibacterial activity (MIC), standard method of the Japanese Society of Chemotherapy; assay type: cell-based; conditions: Haemophilus influenzae; H. influenzae ATCC49247 (first half of Table 2); read-out: MIC, H. influenzae ATCC49247
Experimental: (§1) Antibacterial activity of the compounds of the present invention was measured in accordance with the standard method specified by the Japanese Society of Chemotherapy.

K. pneumoniae TYPE 1 = test: as above; assay type: cell-based; conditions: Klebsiella pneumoniae, TYPE1
Experimental: as §1

S. pneumoniae 104835 = test: as above; assay type: cell-based; conditions: Streptococcus pneumoniae
Experimental: as §1

S. pneumoniae J24 = test: as above; assay type: cell-based; conditions: Streptococcus pneumoniae
Experimental: as §1

P. aeruginosa PAO1 = test: as above; assay type: cell-based; conditions: Pseudomonas aeruginosa
Experimental: as §1

E. faecalis 19433 = test: as above; assay type: cell-based; conditions: Enterococcus faecalis
Experimental: as §1

E. cloacae 03400 = test: as above; assay type: cell-based; conditions: Enterobacter cloacae
Experimental: as §1

S. marcescens 10100 = test: as above; assay type: cell-based; conditions: Serratia marcescens
Experimental: as §1

[1] = system: M(B). Caterrhalis ATCC25238; test: as above; assay type: cell-based; conditions: M(B). Caterrhalis ATCC25238 (first half of Table 2); read-out: MIC, M(B). Caterrhalis ATCC25238
Experimental: as §1

E. coli NIHJ = test: as above; assay type: cell-based; conditions: Escherichia coli
Experimental: as §1

P. mirabilis 08103 = test: as above; assay type: cell-based; conditions: Proteus mirabilis
Experimental: as §1

S. aureus FDA 209-P = test: as above; assay type: cell-based; conditions: Staphylococcus aureus, FDA209
Experimental: as §1

S. aureus 870307 = test: as above; assay type: cell-based; conditions: Staphylococcus aureus
Experimental: as §1

[2] = system: S. pyogenes JCM5674(ATCC12344); test: as above; assay type: cell-based; conditions: Streptococcus pyogenes
Experimental: as §1

S. epidermidis 56500 = test: as above; assay type: cell-based; conditions: Staphylococcus epidermidis
Experimental: as §1

[3] = Mouse phototoxicity test after intravenous administration; assay type: in vivo

COc1c(N2C[C@@H]3CCC[C@]3(N)C2)c(F)cc2c(=O)c(C(=O)O)cn([C@@H]3C[C@@H]3F)c12 (single isomer, unassigned) [Example 11, 7-{(1R*,5S*)-1-Amino-3-azabicyclo[3.3.0]octan-3-yl}-6-fluoro-1-[(1R,2S)-2-fluorocyclopropyl]-8-methoxy-1,4-dihydro-4-oxoquinoline-3-carboxylic acid]
melting point: 169 to 172 °C
induction of micronuclei (mouse bone marrow): negative
MIC (H. influenzae ATCC49247): 0.006 µg/mL (≈ 0.0143 µM)
MIC (K. pneumoniae TYPE 1): 0.1 µg/mL (≈ 0.238 µM)
MIC (S. pneumoniae 104835): 0.39 µg/mL (≈ 0.93 µM)
MIC (S. pneumoniae J24): 0.05 µg/mL (≈ 0.119 µM)
MIC (P. aeruginosa PAO1): 0.78 µg/mL (≈ 1.86 µM)
MIC (E. faecalis 19433): 0.1 µg/mL (≈ 0.238 µM)
MIC (E. cloacae 03400): 0.012 µg/mL (≈ 0.0286 µM)
MIC (S. marcescens 10100): 0.1 µg/mL (≈ 0.238 µM)
MIC [1]: 0.025 µg/mL (≈ 0.0596 µM)
MIC (E. coli NIHJ): 0.025 µg/mL (≈ 0.0596 µM)
MIC (P. mirabilis 08103): 0.05 µg/mL (≈ 0.119 µM)
MIC (S. aureus FDA 209-P): 0.012 µg/mL (≈ 0.0286 µM)
MIC (S. aureus 870307): 0.78 µg/mL (≈ 1.86 µM)
MIC [2]: 0.025 µg/mL (≈ 0.0596 µM)
MIC (S. epidermidis 56500): 0.05 µg/mL (≈ 0.119 µM)
phototoxicity [3]: negative
